Laboratory results: ChEMBL document CHEMBL1146455, “New geranyl stilbenes from Dalea purpurea with in vitro opioid receptor affinity” (J Nat Prod, 2004)

Assay: Displacement of [3H]naloxone from opioid receptor in Sprague-Dawley rat striatal membrane by scintillation spectrophotometry
Parameters: species or system Striatum

Ki [µM]	Compound
0.29	CC(C)=CCC/C(C)=C/Cc1c(O)cc(O)cc1/C=C/c1ccc(O)c(O)c1CC=C(C)C [PAWHUSKIN A]
11.4	CC(C)=CCCC1(C)C=Cc2c(O)cc(/C=C/c3ccc(O)c(O)c3)cc2O1 (centres undefined) [PAWHUSKIN B]
4.2	CC(C)=CCC/C(C)=C/Cc1c(O)cc(/C=C/c2ccc(O)c(O)c2)cc1O [PAWHUSKIN C]
> 100	CC(C)=CCc1cc(O)c(O)c(CC=C(C)C)c1[C@H]1Oc2c(CC=C(C)C)c(O)cc(O)c2C(=O)[C@@H]1O [PETALOSTEMUMOL]
